Reference: ChEMBL document CHEMBL3774370, “Structure-activity relationships (SAR) and structure-kinetic relationships (SKR) of sulphone-based CRTh2 antagonists” (Eur J Med Chem, 2016)

Experiments:
[1] = target: T1, Prostaglandin D2 receptor 2 (Homo sapiens, UniProt Q9Y5Y4); experiment: Displacement of [35S]-GTPgammaS from CRTH2 receptor (unknown origin) expressed in CHOK1 cell membrane after 1 hr by liquid scintillation counter; type: cell membranes, CHO-K1
T1 sequence (Q9Y5Y4 whole entry): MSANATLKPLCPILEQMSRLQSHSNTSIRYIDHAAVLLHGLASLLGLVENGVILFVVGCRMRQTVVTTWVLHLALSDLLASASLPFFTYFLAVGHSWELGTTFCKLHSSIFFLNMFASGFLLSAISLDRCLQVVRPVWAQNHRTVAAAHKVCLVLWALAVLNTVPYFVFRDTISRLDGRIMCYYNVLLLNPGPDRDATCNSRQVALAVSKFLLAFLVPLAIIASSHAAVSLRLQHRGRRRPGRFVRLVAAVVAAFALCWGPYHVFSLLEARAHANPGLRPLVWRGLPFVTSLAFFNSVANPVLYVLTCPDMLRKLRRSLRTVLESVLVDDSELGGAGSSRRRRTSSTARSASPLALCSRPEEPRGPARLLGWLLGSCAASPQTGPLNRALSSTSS

[2] = target: T2, Prostaglandin D2 receptor 2 (Homo sapiens) (UniProt Q9Y5Y4); experiment: Displacement of [35S]-GTPgammaS from CRTH2 receptor (unknown origin) expressed in CHOK1 cell membrane at 10 uM after 1 hr by liquid scintillation counter; type: cell membranes; conditions: CHO-K1
T2 sequence (whole entry): T1 sequence (Q9Y5Y4 whole entry)

[3] = tested on: Prostaglandin D2 receptor 2, CRTh2 (Homo sapiens); experiment: Antagonist activity at CRTH2 receptor (unknown origin) expressed in CHOK1 cells assessed as dissociation half life measured up to 25 hrs by GTPgammaS assay; conditions: CHO-K1

IC50 [1] | inhibition [2] | T1/2 [3] | Structure (SMILES)
3000 nM | – | – | O=C(O)Cc1nc(Cc2ccccc2S(=O)(=O)c2ccccc2)n2ccccc12
– | < 25% | – | O=C(O)Cc1cccn(Cc2ccccc2S(=O)(=O)c2ccccc2)c1=O
14 nM | – | 1.3 h | Cc1ccc2c(CC(=O)O)c(C)n(Cc3ccccc3S(=O)(=O)c3ccccc3)c2n1
10000 nM | – | – | Cc1c(-c2ccccc2)n(CC(=O)O)c(=O)n1Cc1ccccc1S(=O)(=O)c1ccc(F)cc1
– | < 25% | – | O=C(O)Cn1nc(Cc2ccccc2S(=O)(=O)c2ccccc2)c2ccccc2c1=O
970 nM | – | – | Cc1c(Cc2ccccc2S(=O)(=O)c2ccccc2)c(=O)n(-c2ccccc2)n1CC(=O)O
85 nM | – | – | Cc1c(Cc2ccccc2S(=O)(=O)c2ccccc2)c(-c2ccccc2)nn1CC(=O)O
8 nM | – | 0.6 h | Cc1c(Cc2ccccc2S(=O)(=O)c2ccc(F)cc2)nc(-c2ccccc2)n1CC(=O)O
2400 nM | – | – | O=C(O)Cn1c(-c2ccccc2)nn(Cc2ccccc2S(=O)(=O)c2ccccc2)c1=O
18 nM | – | – | COc1ccc(S(=O)(=O)c2ccc(F)cc2)c(Cn2cc(CC(=O)O)c3ccc(C)nc32)c1
14 nM | – | 1.3 h | Cc1c(Cc2ccccc2S(=O)(=O)c2ccccc2)c2cc(F)ccc2n1CC(=O)O
– | < 25% | – | O=C(O)Cn1nc(-c2ccccc2)n(Cc2ccccc2S(=O)(=O)c2ccccc2)c1=O
5 nM | – | – | COc1ccc(S(=O)(=O)c2ccc(F)cc2)c(Cc2c(C)c(CC(=O)O)c3ccncn23)c1
860 nM | – | – | O=C(O)Cc1cc(Cl)c(=O)n(Cc2ccccc2S(=O)(=O)c2ccccc2)c1
28 nM | – | – | Cc1c(CC(=O)O)c2ccncn2c1Cc1ccccc1S(=O)(=O)c1ccccc1
– | < 25% | – | O=C(O)Cn1nc(-c2ccccc2)cc(Cc2ccccc2S(=O)(=O)c2ccccc2)c1=O
2 nM | – | 21 h | Cc1c(Cc2ccccc2S(=O)(=O)c2ccc(F)cc2)c2c(n1CC(=O)O)CCCC2=O
47 nM | – | 0.05 h | O=C(O)Cc1cc(Cc2ccccc2S(=O)(=O)c2ccccc2)c2nc(C(F)(F)F)ccn12
1600 nM | – | – | O=C(O)CN1c2cccnc2N(Cc2ccccc2S(=O)(=O)c2ccccc2)S1(=O)=O
104 nM | – | – | Cc1c(Cc2ccccc2S(=O)(=O)c2ccc(F)cc2)c2c(n1CC(=O)O)CCCC2
2 nM | – | 21 h | COc1ccc(S(=O)(=O)c2ccc(F)cc2)c(Cc2c3c(n(CC(=O)O)c2C)CCCC3=O)c1
10000 nM | – | – | O=C(O)Cc1ccc(=O)n(Cc2ccccc2S(=O)(=O)c2ccccc2)c1
4 nM | – | 13 h | COc1ccc(S(=O)(=O)c2ccc(F)cc2)c(Cn2c(C)c(CC(=O)O)c3ccc(C)nc32)c1
65 nM | – | 0.04 h | O=C(O)Cc1nn(Cc2ccccc2S(=O)(=O)c2ccccc2)c(=O)c2ccccc12
– | – | 0.1 h | Cc1c(CC(=O)O)c(-c2ccccc2)nn1Cc1ccccc1S(=O)(=O)c1ccccc1
